Laboratory results as given in patent US7973071B2, “Substituted gamma lactams as therapeutic agents” (Allergan, Inc., priority 2005, dated 2011).

Legend:
EP4 receptors = molecular target: T1, EP4 receptors (Homo sapiens, UniProt P35408); assay: Radioligand binding vs [3H]PGE2, EP4
T1 construct: expressed in transfected cells; host or cells: HEK-293
Protocol: HEK-293 cells stably expressing the human or feline FP receptor, or EP1, EP2, or EP4 receptors were washed with TME buffer, scraped from the bottom of the flasks, and homogenized for 30 sec using a Brinkman PT 10/35 polytron. TME buffer was added to achieve a final 40 ml volume in the centrifuge tubes (the composition of TME is 100 mM TRIS base, 20 mM MgCl2, […]; 10N HCl is added to achieve a pH of 7.4).
The cell homogenate was centrifuged at 19000 r.p.m. for 20 min at 4° C. using a Beckman Ti-60 rotor. The resultant pellet was resuspended in TME buffer to give a final 1 mg/ml protein concentration, as determined by Biorad assay. Radioligand binding competition assays vs. [^3H-]17 phenyl PGF2α, (5 nM) were performed in a 1001μvolume for 60 min. Binding reactions were started by adding plasma membrane fraction. The reaction was terminated by the addition of 4 ml ice-cold TRIS-HCl buffer and rapid filtration through glass fiber GF/B filters using a Brandel cell harvester. The filters were washed 3 times with ice-cold buffer and oven dried for one hour.
[^3H-] PGE2 (specific activity 180 Ci mmol) was used as the radioligand for EP receptors. [^3H] 17-phenyl PGF2α was employed for FP receptor binding studies. […] 17-phenyl PGF2α and non-specific binding determined with 10^−5M of unlabeled PGE2, or 17-phenyl PGF2α, according to receptor subtype studied.

EP2 [1] = molecular target: T2, EP2 (Homo sapiens, UniProt P43116); assay: EP2 cAMP assay; assay type: cell-based
T2 sequence (P43116 whole entry): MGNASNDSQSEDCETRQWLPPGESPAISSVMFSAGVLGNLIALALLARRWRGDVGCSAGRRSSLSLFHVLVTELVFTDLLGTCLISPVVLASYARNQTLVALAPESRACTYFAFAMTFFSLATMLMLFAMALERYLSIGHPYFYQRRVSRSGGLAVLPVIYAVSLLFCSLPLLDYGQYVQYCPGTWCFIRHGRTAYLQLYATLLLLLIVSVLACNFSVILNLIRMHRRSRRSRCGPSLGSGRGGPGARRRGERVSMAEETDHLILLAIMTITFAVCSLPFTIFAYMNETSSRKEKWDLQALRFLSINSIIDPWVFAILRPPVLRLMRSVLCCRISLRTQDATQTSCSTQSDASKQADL

hEP3A/Gqi5 = molecular target: T3, hEP3A/Gqi5 (Homo sapiens, UniProt P43115); assay: FLIPR calcium signal study, EP3A; assay type: cell-based; settings: read-out: Other Receptors hEP3A EC50
T3 construct: expressed in transfected cells; host or cells: HEK-293(EBNA)
T3 sequence (P43115 1-390): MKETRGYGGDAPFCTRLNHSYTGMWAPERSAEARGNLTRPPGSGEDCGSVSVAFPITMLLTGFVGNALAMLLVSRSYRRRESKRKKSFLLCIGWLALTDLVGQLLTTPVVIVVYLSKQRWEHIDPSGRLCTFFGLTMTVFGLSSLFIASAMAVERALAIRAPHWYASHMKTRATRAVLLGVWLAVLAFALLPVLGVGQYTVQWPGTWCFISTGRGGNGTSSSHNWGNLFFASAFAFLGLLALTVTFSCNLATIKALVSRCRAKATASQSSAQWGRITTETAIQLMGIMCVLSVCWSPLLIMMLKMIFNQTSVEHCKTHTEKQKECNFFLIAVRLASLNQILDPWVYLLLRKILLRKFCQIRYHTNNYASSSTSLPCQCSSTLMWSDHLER
Protocol: HEK-293(EBNA) cells, stably expressing one type or subtype of recombinant human prostaglandin receptors (prostaglandin receptors expressed: hDP/Gqs5; hEP1; hEP2/Gqs5; hEP3A/Gqi5; hEP4/Gqs5; hFP; hIP; hTP), were cultured in 100 mm culture dishes in high-glucose DMEM medium containing 10% fetal bovine serum, 2 mM 1-glutamine, 250 μg/ml geneticin (G418) and 200 μg/ml hygromycin B as selection markers, and 100 units/ml penicillin G, 100 μg/ml streptomycin and 0.25 μg/ml amphotericin B.
Cells were seeded at a density of 5×10^4 cells per well in Biocoat® Poly-D-lysine-coated black-wall, clear-bottom 96-well plates (Becton-Dickinson) and allowed to attach overnight in an incubator at 37° C. Cells were then washed two times with HBSS-HEPES buffer (Hanks Balanced Salt Solution without bicarbonate and phenol red, 20 mM HEPES, pH 7.4) using a Denley Cellwash plate washer (Labsystems). […]
Cells were excited with an Argon laser at 488 nm, and emission was measured through a 510-570 nm bandwidth emission filter (FLIPR™, Molecular Devices, Sunnyvale, Calif.). […] The peak increase in fluorescence intensity was recorded for each well. […] The peak fluorescence change in each drug-containing well was then expressed relative to the controls. […]

EP2 [2] = molecular target: T2, EP2; assay: Competition binding vs [3H]PGE2, EP2; design: expressed in transfected cells; host or cells: HEK 293; settings: HEK 293 cells stably expressing human EP2
Protocol: Competition binding experiments were performed in a medium containing Hank's balanced salt solution, Hepes 20 mM, pH 7.3, membranes (˜60 μg protein) or 2×10^5 cells from HEK 293 cells stably expressing human EP2 receptors, [^3H]PGE2 (10 nM) and various concentrations of test compounds in a total volume of 300 μl. Reaction mixtures were incubated at 23° C. for 60 min, and were filtered over Whatman GF/B filters under vacuum. Filters were washed three times with 5 ml ice-cold buffer containing 50 mM Tris/HCl (pH 7.3). Non-specific binding was estimated in the presence of excess unlabeled PGE2 (10 μM). Binding data fitted to the binding model for a single class of binding sites, using nonlinear regression analysis. IC50 values thus obtained were converted to Ki using the equation of Ki=(IC50/(1+[L]/KD) where [L] represents PGE2 concentration (10 nM) and KD the dissociation constant for [^3H]PGE2 at human EP2 receptors (40 nM). […]
The cell homogenate was centrifuged at 19000 r.p.m. for 20 min at 4° C. using a Beckman Ti-60 rotor. The resultant pellet was resuspended in TME buffer to give a final 1 mg/ml protein concentration, as determined by Biorad assay. […]
[^3H-] […] 17-phenyl PGF2α and non-specific binding determined with 10^−5M of unlabeled PGE2, or 17-phenyl PGF2α, according to receptor subtype studied.

T1 sequence (P35408 whole entry): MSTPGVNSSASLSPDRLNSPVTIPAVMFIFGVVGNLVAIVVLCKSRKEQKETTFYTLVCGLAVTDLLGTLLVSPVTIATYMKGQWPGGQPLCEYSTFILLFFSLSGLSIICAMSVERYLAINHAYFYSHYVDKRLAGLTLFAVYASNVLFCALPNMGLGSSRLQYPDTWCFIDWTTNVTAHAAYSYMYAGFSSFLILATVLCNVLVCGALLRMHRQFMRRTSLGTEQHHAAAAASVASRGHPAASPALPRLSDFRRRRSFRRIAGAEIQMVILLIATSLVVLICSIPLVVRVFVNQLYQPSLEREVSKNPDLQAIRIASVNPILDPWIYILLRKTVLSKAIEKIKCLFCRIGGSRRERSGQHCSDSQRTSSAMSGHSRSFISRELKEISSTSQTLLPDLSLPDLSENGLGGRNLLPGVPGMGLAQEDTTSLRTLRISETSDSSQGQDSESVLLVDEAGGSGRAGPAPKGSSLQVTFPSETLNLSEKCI

Compound	Ki (EP4 receptors) [nM]	EC50 (EP2 [1]) [nM]	EC50 (hEP3A/Gqi5) [nM]	Ki (EP2 [2]) [nM]
CCCCCCC(O)c1ccc(N2C(=O)CC[C@@H]2COCc2ccc(C(=O)O)s2)cc1 (single isomer, unassigned) [Example 34]	3840	–	–	–
CCCCCC(O)c1ccc(N2C(=O)CC[C@@H]2COCc2ccc(C(=O)O)s2)cc1 (stereo partly drawn) [Example 9, 5-{(R)-1-[4-(1-Hydroxy-hexyl)-phenyl]-5-oxo-pyrrolidin-2-ylmethoxymethyl}-thiophene-2-carboxylic acid]	–	3	403	–
CCCCCCC(O)c1ccc(N2C(=O)CC[C@@H]2COCc2ccc(C(=O)O)s2)cc1 (stereo partly drawn) [Example 13, 5-{(R)-1-[4-(1-Hydroxy-heptyl)-phenyl]-5-oxo-pyrrolidin-2-ylmethoxymethyl}-thiophene-2-carboxylic acid]	–	–	519	–
CCCCCCC(O)c1ccc(N2C(=O)CC[C@@H]2CCCc2ccc(C(=O)O)s2)cc1 (stereo partly drawn) [Example 36, 5-(3-{(S)-1-[4-(1-Hydroxy-heptyl)-phenyl]-5-oxo-pyrrolidin-2-yl}-propyl)-thiophene-2-carboxylic acid]	–	0.9	–	10
